Patent US20030037344A1, “METHOD FOR EVALUATING THE ABILITY OF A COMPOUND TO INHIBIT NEUROTOXICITY” (priority 1997, published 2003)

Test system: PC12 cells stably transfected with RAGE and transiently transfected with mutant presenilin-2 (N141 mutant)
Test: TUNEL apoptosis assay in transfected PC12 cells exposed to Aβ
Assay type: cell-based
Conditions: Aβ 0.3 and 1 μM, 24 hrs; cells co-transfected to express mutant presenilin-2 and RAGE
Experimental: Induction of apoptosis. For apoptosis studies, PC12 cultures, either mock-transfected (control), stably transfected with the RAGE-bearing construct or stably transfected with the RAGE-bearing construct and transiently transfected with the mutant presenilin-2 bearing construct, and were then exposed to Aβ (0.3 or 1 μM) for 24 hrs. At the end of this time, apoptosis was determined using the TUNEL assay by counting positively staining nuclei per twenty high-power fields. Under these conditions, mutant presenilin-2 by itself has little effect on apoptosis, as shown previously (FIG. 3).
Generation of Stable Transfected Cells. PC12 cells, grown as described and transfected with pcDNA3-RAGE (the latter comprised of the human RAGE cDNA) (Yan, et al., 1996) using lipofectamine (12 μg/ml) according to the manufacturer's instructions (Gibco-BRL). Cells were maintained in the presence of G418. Transient transfection was performed with a vector including mutant presenilin-2 (N141 mutant) (Wolozin et al., 1996), using lipofectamine, as described (Wolozin et al., 1996). Immunoblotting and immunostaining of PC12 cells for RAGE was performed as described previously (Yan, et al., 1996).
Apoptosis assay. The terminal deoxynucleotidyl transferase-mediated dUTP nick end labeling (TUNEL) assay was performed as described using a kit from Travigen, a peroxide-based TACS-TdTkit (Woolozin, et al., 1996). […]

Aβ: Aβ (comprised of residues 1-42), synthesized, HPLC purified, purchased from a commercial supplier
apoptosis (TUNEL, positively staining nuclei per twenty high-power fields): dramatic increase in apoptosis
